# Experimental data as given in patent publication US20110262556A1, “SILVER/WATER, SILVER GELS AND SILVER-BASED COMPOSITIONS; AND METHODS FOR MAKING AND USING THE SAME” (AMERICAN SILVER, LLC, priority 2005, published 2011).
# Values joined by “and” are separate entries in the source; they are usually repeats but may differ in a detail not shown here. Equal entries are not always repeated. Where two headings read alike, the source gives them in different places.
# What was measured:
# [1] = target: Moloney murine leukemia virus reverse transcriptase (MoMuLV) (Moloney murine leukemia virus, UniProt P03355); test: Reverse transcriptase inhibition; format: biochemical; conditions: 37° C., 24 hours; AZT control at 0.625 microgram/ml
# Description: A commercial viral enzyme preparation of Moloney murine leukemia virus reverse transcriptase (MoMuLV) having Poly(A)dT (primer for RT) was used. […] of the MoMuLV preparation was combined with a mixture of dATP, dGTP, dCTP and [^3H]dTTP nucleotides.
# This mixture was combined with 3 ml of the inhibitor to be tested, and the resultant mixture was incubated at 37° C. for 24 hours.
# A negative control experiment was performed in which phosphate buffer saline (PBS, 3 ml) was used instead of the inhibitor.
# A positive control experiment was performed in which a known reverse transcriptase inhibitor (3 ml of AZT at a concentration 0.625 microgram/ml) was used instead of the tested inhibitor.
# The reaction was stopped by adding 25 ml EDTA and 25 ml TCA. The reaction mixture was then spotted on ionic paper (DEAE paper). The paper was washed three times with TCA and then with ethyl alcohol. The filter paper was air dried and put in a scintillation vial with a scintillation cocktail. Radioactivity was measured by a liquid scintillation counter (Blue Star).
# [2] = system: MRSA clinical isolate; test: MIC, macrodilution broth
# [3] = system: E. coil; test: Zone of inhibition, agar well; conditions: E.coli; antibiotic amount (5-200 mcg)
# [4] = system: S.typhi; test: Zone of inhibition, agar well; conditions: antibiotic amount (5-200 mcg)
# [5] = system: Escherichia coli MDR clinical isolate (stool); test: Antibiotic sensitivity, Kirby Bauer; conditions: E.c; Kirby-Bauer antibiotic disc
# [6] = system: Pseudomonas aeruginosa MDR clinical isolate (sputum); test: Antibiotic sensitivity, Kirby Bauer
# [7] = system: MRSA clinical isolate (pus); test: Antibiotic sensitivity, Kirby Bauer; conditions: Kirby-Bauer antibiotic disc
# [8] = system: S. pyogenes; test: MIC/MBC broth microdilution; format: cell-based, Streptococcus pyogenes; conditions: Streptococcus pyogenes
# [9] = system: S. mutans; test: MIC/MBC broth microdilution; format: cell-based, Streptococcus mutans; conditions: Streptococcus mutans
# [10] = system: S gordonii; test: MIC/MBC broth microdilution; format: cell-based, Streptococcus gordonii; conditions: Streptococcus gordonii
# [11] = system: S. pneumoniae; test: MIC/MBC broth microdilution; format: cell-based; conditions: Streptococcus pneumoniae
# [12] = system: S. faecalis; test: MIC/MBC broth microdilution; format: cell-based, Streptococcus faecalis; conditions: Enterococcus faecalis
# [13] = system: S. aureus; test: MIC/MBC broth microdilution; format: cell-based, Staphylococcus aureus; conditions: Staphylococcus aureus
# [14] = system: P. aeruginosa; test: MIC/MBC broth microdilution; format: cell-based, Pseudomonas aeruginosa; conditions: Pseudomonas aeruginosa
# [15] = system: E. coli; test: MIC/MBC broth microdilution; format: cell-based, Escherichia coli; conditions: Escherichia coli
# [16] = system: E. aerogenes; test: MIC/MBC broth microdilution; format: cell-based, Enterobacter aerogenes; conditions: Klebsiella aerogenes; E. aerogenes; read-out: MIC
# [17] = system: E. cloacae; test: MIC/MBC broth microdilution; format: cell-based; conditions: Enterobacter cloacae
# [18] = system: S. typhimurium; test: MIC/MBC broth microdilution; format: cell-based; conditions: Salmonella enterica, TYPHIMURIUM
# [19] = system: S arizona; test: MIC/MBC broth microdilution; format: cell-based, Salmonella arizona; conditions: Salmonella
# [20] = system: S. boydii; test: MIC/MBC broth microdilution; format: cell-based, Shigella boydii; conditions: Shigella boydii
# [21] = system: K. pneumoniae; test: MIC/MBC broth microdilution; format: cell-based, Klebsiella pneumoniae; conditions: Klebsiella pneumoniae
# [22] = system: K. oxytoca; test: MIC/MBC broth microdilution; format: cell-based; conditions: Klebsiella oxytoca
# [23] = system: Ps. Aeruginosa; test: Zone of inhibition, agar well; conditions: antibiotic amount (5-200 mcg)
# [24] = system: MRSA 2; test: Zone of inhibition, agar well; conditions: antibiotic amount (1-200 mcg)
# [25] = system: S. aureus ATCC 6538 P; test: Zone of inhibition, agar well; conditions: antibiotic amount (1-200 mcg)
# [26] = target: T1, Hepatitis B virus DNA polymerase (Hepatitis B virus genotype D subtype ayw, UniProt P03156); test: DNA polymerase inhibition; format: biochemical; conditions: read-out: % Inhibition (DNA polymerase)
# T1 construct: from tissue; host or cells: Hepatitis B virus isolated from human subjects, lysed
# T1 sequence (P03156 whole entry): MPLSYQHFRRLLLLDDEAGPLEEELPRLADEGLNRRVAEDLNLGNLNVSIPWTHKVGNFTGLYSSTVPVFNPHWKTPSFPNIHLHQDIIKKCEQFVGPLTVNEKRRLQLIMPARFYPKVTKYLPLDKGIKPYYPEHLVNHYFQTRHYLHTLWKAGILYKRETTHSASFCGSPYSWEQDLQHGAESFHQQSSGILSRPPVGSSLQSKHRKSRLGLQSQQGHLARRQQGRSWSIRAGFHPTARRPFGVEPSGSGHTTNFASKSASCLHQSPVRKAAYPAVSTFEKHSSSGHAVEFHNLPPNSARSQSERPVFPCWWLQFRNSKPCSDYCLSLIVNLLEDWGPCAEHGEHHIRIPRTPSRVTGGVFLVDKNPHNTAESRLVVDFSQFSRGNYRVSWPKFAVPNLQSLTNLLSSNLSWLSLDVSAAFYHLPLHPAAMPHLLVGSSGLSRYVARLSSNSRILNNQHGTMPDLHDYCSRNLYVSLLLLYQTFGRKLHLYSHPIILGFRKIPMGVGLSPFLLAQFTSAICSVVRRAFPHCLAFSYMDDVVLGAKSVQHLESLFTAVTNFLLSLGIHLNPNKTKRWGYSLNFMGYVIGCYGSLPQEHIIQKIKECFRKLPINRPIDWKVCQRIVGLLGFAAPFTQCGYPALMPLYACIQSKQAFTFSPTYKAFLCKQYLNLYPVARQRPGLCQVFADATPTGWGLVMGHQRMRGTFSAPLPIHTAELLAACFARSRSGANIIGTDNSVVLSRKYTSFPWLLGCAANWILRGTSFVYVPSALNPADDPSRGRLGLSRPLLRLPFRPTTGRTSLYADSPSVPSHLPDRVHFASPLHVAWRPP
# Description: Overall approach. Hepatitis B viral extracts from human subjects are incubated with radiolabelled nucleotides and an active inhibitor. Percent inhibition is calculated based on the amount of de novo viral nucleic acid synthesized with respect to lamivudine as a positive control and phosphate buffer saline (PBS) as a negative control.
# Specific procedure. Isolated Hepatitis B virus was lysed to extract free polymerase enzyme, which is free from contaminating enzymes. A virus extract (25 ml) was added to a reaction mixture comprising dATP, dGTP, dCTP and [^3H]dTTP nucleotides (25 ml). Active inhibitor (3 ml) was added to the mixture comprising virus extract and nucleotides. The resultant mixture was incubated at 37° C. for 24 hours.
# A separate negative control experiment was performed in which phosphate buffer saline (PBS, 3 ml) was used instead of the inhibitor (3 ml).
# A separate positive control experiment was performed in which a known DNA polymerase inhibitor (3 ml of lamivudine at a concentration 3 mg/ml) was used instead of the tested inhibitor (3 ml).
# The reaction was stopped by adding 25 ml EDTA and 25 ml TCA (trichloroacetic acid). The reaction mixture was then spotted on ionic paper (DEAE paper). The paper was washed three times with TCA and then with ethyl alcohol. […] Radioactivity was measured by a liquid scintillation counter (Blue Star). […]
# [27] = system: Pseudomonas culture
# Description: (§1) Phenol Resistance. Five-one ml aliquots of each dilution of the test phenol were placed into sterile test tubes and allowed to equilibrate in a 20±2° C. water bath. At 30 second intervals, 0.5 ml of each challenge culture was added to the appropriate dilutions of phenol, agitated, and replaced into the water bath: After the appropriate exposure times of 5, 10, and 15 minutes, a loopful of suspension was removed from the assay tubes and transferred to tubes of letheen broth (LETH). The tubes of LETH were incubated at 37±2° C. for 2 days.
# [28] = system: Salmonella culture; conditions: 5, 10 or 15 min
# Description: as §1
# [29] = system: Staphylococcus culture
# Description: as §1
# [30] = system: Mycobacterium bovis BCG (TMC 1028); format: cell-based
# [31] = system: B. subtilis; test: Zone of inhibition, agar well; conditions: antibiotic amount (1-200 mcg)
# [32] = system: K. pneumoniae; test: Zone of inhibition, agar well; conditions: antibiotic amount (5-200 mcg)
compound,measurement,setting,value
"Cc1cn([C@H]2C[C@H](N=[N+]=[N-])[C@@H](CO)O2)c(=O)[nH]c1=O [AZT, zidovudine]",% Inhibition (reverse transcriptase),[1],31.33% and 18.06%
NCC[C@H](O)C(=O)N[C@@H]1C[C@H](N)[C@@H](O[C@H]2O[C@H](CN)[C@@H](O)[C@H](O)[C@H]2O)[C@H](O)[C@H]1O[C@H]1O[C@H](CO)[C@@H](O)[C@H](N)[C@H]1O [Amikacin],Growth,[2]; Conc. 0.2 mcg/ml,+
same,Growth,[2]; Conc. 0.4 mcg/ml,+
same,Growth,[2]; Conc. 0.6 mcg/ml,+
same,Growth,[2]; Conc. 0.8 mcg/ml,−
same,Growth,[2]; Conc. 1 mcg/ml,−
same,Growth,[2]; Conc. 2 mcg/ml,−
same,Growth,[2]; Conc. 3 mcg/ml,−
same,Growth,[2]; Conc. 4 mcg/ml,−
same,Growth,[2]; Conc. 5 mcg/ml,−
same,MIC,"[2]; Staphylococcus aureus, Nutrient Broth",0.8 µg/mL
same,"zone of inhibition, antibiotics",[3],Clear
same,"zone of inhibition, antibiotics",[4],Clear
same,Zone size (mm),[5],20 mm
same,Zone size (mm),"[6]; Ps., Kirby-Bauer antibiotic disc",9 mm
same,resistance of isolate,[6]; gram-negative isolate Pseudomonas,resistant
same,Zone size (mm),[7],22 mm
CN(C)[C@@H]1C(O)=C(C(N)=O)C(=O)[C@@]2(O)C(O)=C3C(=O)c4c(O)cccc4[C@@](C)(O)[C@H]3C[C@@H]12 [Tetracycline],MBC,[8]; read-out: MBC,> 5 µg/mL
same,MIC,[8]; read-out: MIC,0.625 µg/mL
same,MBC,[9]; read-out: MBC,> 5 µg/mL
same,MIC,[9]; read-out: MIC,0.625 µg/mL
same,MBC,[10]; read-out: MBC,0.625 µg/mL
same,MIC,[10]; read-out: MIC,0.156 µg/mL
same,MBC,[11]; read-out: MBC,0.625 µg/mL
same,MIC,[11]; read-out: MIC,0.078 µg/mL
same,MBC,[12]; read-out: MBC,> 5 µg/mL
same,MIC,[12]; read-out: MIC,0.313 µg/mL
same,MBC,[13]; read-out: MBC,> 5 µg/mL
same,MIC,[13]; read-out: MIC,0.313 µg/mL
same,MBC,[14]; read-out: MBC,5 µg/mL
same,MIC,[14]; read-out: MIC,0.078 µg/mL
same,MBC,[15]; read-out: MBC,> 5 µg/mL
same,MIC,[15]; read-out: MIC,1.67 µg/mL
same,MIC,[16],> 5 µg/mL
same,MBC,[17],> 5 µg/mL
same,MIC,[17]; read-out: MIC,1.67 µg/mL
same,MBC,[18],> 5 µg/mL
same,MBC,[19]; read-out: MBC,> 5 µg/mL
same,MIC,[19]; read-out: MIC,0.625 µg/mL
same,MBC,[20],> 5 µg/mL
same,MBC,[21],> 5 µg/mL
same,MIC,[21]; read-out: MIC,2.5 µg/mL
same,MBC,[22],> 5 µg/mL
same,"zone of inhibition, antibiotics",[3],19 mm
same,"zone of inhibition, antibiotics",[23],No inhibition
same,"zone of inhibition, antibiotics",[24],0.7 mm
same,"zone of inhibition, antibiotics",[25],34 mm
same,"zone of inhibition, antibiotics",[4],16 mm
same,Zone size (mm),[7],27 mm
Nc1ccn([C@@H]2CS[C@H](CO)O2)c(=O)n1 [lamivudine],inhibition at 3000 µg/mL,[26],31.3%
Oc1ccccc1 [phenol],growth after phenol treatment,"[27]; 1:80 phenol, 5 or 10 min",showed growth
same,growth after phenol treatment,"[27]; 1:80 phenol, 15 min",no growth
same,growth after phenol treatment,"[27]; 1:90 phenol, 5, 10 or 15 min",showed growth
same,growth after phenol treatment,[28]; 1:90 phenol,no growth
same,growth after phenol treatment,[28]; 1:100 phenol,showed growth
same,growth after phenol treatment,"[29]; 1:60 phenol, 5 or 10 min",showed growth
same,growth after phenol treatment,"[29]; 1:60 phenol, 15 min",no growth
same,growth after phenol treatment,"[29]; 1:70 phenol, 5, 10 or 15 min",showed growth
same,log reduction,[30],~1.81
Co-Trimoxazole,"zone of inhibition, antibiotics",[3],24 mm
same,"zone of inhibition, antibiotics",[23],Clear
same,"zone of inhibition, antibiotics",[31],15 mm
same,"zone of inhibition, antibiotics",[25],Clear
same,"zone of inhibition, antibiotics",[4],27 mm
same,"zone of inhibition, antibiotics",[32],19 mm
Gentamycin,"zone of inhibition, antibiotics",[3],Clear
same,"zone of inhibition, antibiotics",[23],No inhibition
same,"zone of inhibition, antibiotics",[31],18 mm
same,"zone of inhibition, antibiotics",[24],11 mm
same,"zone of inhibition, antibiotics",[25],1Clear
same,"zone of inhibition, antibiotics",[4],Clear
same,"zone of inhibition, antibiotics",[32],17 mm
same,Zone size (mm),[5],19 mm
